Values of other authors, collected in patent publication US20230104487A1, “11-(4-CHLOROPHENYL)-4-(2,3-DIHYDRO-1H-INDOLE-1-CARBONYL)-3,11-DIMETHYL-5,10,DIOXATRICYCLO[7.4.0.0,2,6,]TRIDECA-1,3,6,8-TETRAEN-13-ONE AND DERIVATIVES AS DESTABILIZER OF CRY1 FOR THE TREATMENT OF CIRCADIAN RHYTHM ASSOCIATED DISEASES AND DISORDERS” (KOC UNIVERSITESI, priority 2019, published 2023).

Tests used:
[1] = tested on: REV-ERB; conditions: Solt et al., 2012; cited from earlier work
[2] = tested on: CRYs; conditions: Hirota et al., 2012; cited from earlier work
[3] = tested on: gluconeogenesis; conditions: Hirota et al., 2012; cited from earlier work

SMILES	effect on REV-ERB's repressor function [1]	effect on stability of the CRYs [2]	effect on gluconeogenesis [3]
CC(C)(C)OC(=O)CN(Cc1ccc(Cl)cc1)Cc1ccc([N+](=O)[O-])s1 [GSK4112]	enhance REV-ERB's repressor function toward Bmal1 transcription	–	–
CS(=O)(=O)N(Cc1ccco1)CC(O)Cn1c2ccccc2c2ccccc21 (stereo not drawn) [KL001]	–	increases stability of the CRYs	suppresses the gluconeogenesis
